Experimental data published in US6709851B1, “Stabilization of helicobacter urease” (OraVax-Merieux Co., priority 1997, dated 2004).
“Also recorded” adds a separate entry of the source. Where two headings read alike, the source gives them in different places.

Legend:
[1] = Molecular stability and aggregation of urease by analytical size exclusion HPLC; details: for effect of blocking free sulfhydryl groups on molecular association of urease: treated urease in solution or dialyzed in PBS; for effect of additive on molecular association of urease: dialysis against PBS and storage at 4° C.
[2] = biological target: T1, recombinant H. pylori apourease (Helicobacter pylori, UniProt P69996); type: biochemical; details: for activation of modified urease after removal of excess modifying agent: excess agent removed by diafiltration; for activation with Ni++ and bicarbonate of urease modified by the compound: urease modified before activation
T1 sequence (P69996 whole entry, looked up): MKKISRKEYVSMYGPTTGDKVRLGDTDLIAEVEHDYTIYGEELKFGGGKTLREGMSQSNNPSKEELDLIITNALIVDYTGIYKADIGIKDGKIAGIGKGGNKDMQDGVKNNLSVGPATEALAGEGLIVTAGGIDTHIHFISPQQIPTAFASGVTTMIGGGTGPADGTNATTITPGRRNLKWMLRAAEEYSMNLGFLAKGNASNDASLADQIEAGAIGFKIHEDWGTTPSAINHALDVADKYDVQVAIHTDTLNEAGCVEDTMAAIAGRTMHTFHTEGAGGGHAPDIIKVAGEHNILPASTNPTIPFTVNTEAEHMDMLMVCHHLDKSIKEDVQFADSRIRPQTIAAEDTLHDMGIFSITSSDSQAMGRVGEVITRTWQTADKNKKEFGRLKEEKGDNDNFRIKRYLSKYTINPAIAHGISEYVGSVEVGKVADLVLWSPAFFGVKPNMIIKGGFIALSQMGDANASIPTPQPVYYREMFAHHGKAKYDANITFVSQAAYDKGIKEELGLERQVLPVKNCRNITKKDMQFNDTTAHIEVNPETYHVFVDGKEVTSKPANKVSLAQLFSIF

[3] = biological target: T1, recombinant H. pylori apourease; type: biochemical; details: for effect of imidazole on activation by Ni++ and bicarbonate: imidazole 2.5-25 mM, 200 mM bicarbonate, 200 μM Ni++
[4] = biological target: in vitro activated urease (Helicobacter pylori, UniProt P69996); type: biochemical
in vitro activated urease, sequence (P69996 whole entry, looked up): as above

[5] = compound added along with activation buffer

NC(=O)CI [iodoacetamide]
effect of blocking free sulfhydryl groups on molecular association of urease [1]: stabilizing effect on urease in solution; also recorded: reduce the molecular associations; also recorded: stabilized the hexameric form of urease and prevented molecular association
activation with compound included in the activation mixture [2, 5]: blocking of activation
activation of modified urease after removal of excess modifying agent [2]: not activated
activation with Ni++ and bicarbonate of urease modified by the compound [2]: not activated; also recorded: inhibits activation

O=C(O)CN(CCN(CC(=O)O)CC(=O)O)CC(=O)O [EDTA]
effect of additive on molecular association of urease [1]: did not have any significant effect

OCCS [β-mercaptoethanol]
effect of additive on molecular association of urease [1]: stabilized urease in the hexameric form; also recorded: prevented the molecular associations

[Cu+2] [Cu^++]
effect of other metal ion on Ni++ activation by native PAGE and silver staining [3]: inhibitory effect
effect of other metal ion on activation of recombinant urease by Ni++ [2]: inhibited activation; also recorded: antagonistic effects

O=C(O)c1cc(SSc2ccc([N+](=O)[O-])c(C(=O)O)c2)ccc1[N+](=O)[O-] [DTNB, 5-5′-dithio-bis-2-nitrobenzoic acid]
effect of blocking free sulfhydryl groups on molecular association of urease [1]: stabilizing effect on urease in solution; also recorded: reduce the molecular associations; also recorded: stabilized the hexamer form of urease and prevented molecular association
activation with compound included in the activation mixture [2, 5]: blocking of activation
activation of modified urease after removal of excess modifying agent [2]: not activated
activation with Ni++ and bicarbonate of urease modified by the compound [2]: not activated

c1c[nH]cn1 [imidazole]
effect of imidazole on activation by Ni++ and bicarbonate [3]: inhibits urease activation
effect of imidazole on activation by Ni++ and bicarbonate ([3]; listed as Imidazole): inhibit the activation of recombinant urease in a concentration-dependent manner

CCN1C(=O)C=CC1=O [NEM, N-ethyl maleimide]
activation by bicarbonate and nickel of NEM-modified apourease ([2]; 9 mM NEM, room temperature, 60 minutes, 20 mM Hepes pH 7.5): not activated

[Ni+2] [Ni^++]
activation of recombinant urease by metal ion with bicarbonate [2]: resulted in activation of urease

O=[N+]([O-])c1ccc(F)c([N+](=O)[O-])c1 [DNFB, dinitrofluorobenzene]
effect of DNFB treatment on molecular stability ([1]; dialyzed against phosphate buffer overnight): stabilizes the hexameric form of urease
activation with compound included in the activation mixture [2]: activation is blocked
in vitro activation after DNFB treatment for 5, 15, 30, and 60 minutes [2]: blocks in vitro activation
pH dependence of DNFB blocking of in vitro activation [2]: more effective at alkaline pH (pH>7.5) than at neutral or acidic pH; also recorded: pH-dependent
in vitro activation of apourease modified with DNFB ([2]; pH 8): blocked in vitro activation; also recorded: not activated
effect of DNFB on pre-activated urease activity [4]: inactivates pre-activated urease in a pH-dependent manner

[Mn+2] [Mn^++]
activation of recombinant urease by metal ion with bicarbonate [2]: resulted in activation of urease
effect of other metal ion on activation of recombinant urease by Ni++ [2]: enhanced the activation; also recorded: synergistic effect

OC[C@H]1O[C@@](CO)(O[C@H]2O[C@H](CO)[C@@H](O)[C@H](O)[C@H]2O)[C@@H](O)[C@@H]1O [Sucrose]
effect of additive on molecular association of urease [1]: significantly reduced the extent of aggregation

[Co+2] [Co^++]
activation of recombinant urease by metal ion with bicarbonate [2]: do not cause urease activation
effect of other metal ion on activation of recombinant urease by Ni++ [2]: inhibit activation

[Fe+2] [Fe^++]
effect of other metal ion on Ni++ activation by native PAGE and silver staining [3]: inhibitory effect
effect of other metal ion on activation of recombinant urease by Ni++ [2]: inhibited activation; also recorded: antagonistic effects

[Mg+2] [Mg^++]
effect of other metal ion on activation of recombinant urease by Ni++ [2]: no detectable effect
